Legend:
[1] = target: T1, Lysophosphatidic acid receptor 3 (Homo sapiens, UniProt Q9UBY5); assay: Antagonist activity at human LPA3 receptor overexpressed in CHO cells pre-incubated for 1 hr followed by LPA addition by fluorescence based FLIPR calcium assay; type: functional, cell-based
T1 sequence (Q9UBY5 whole entry): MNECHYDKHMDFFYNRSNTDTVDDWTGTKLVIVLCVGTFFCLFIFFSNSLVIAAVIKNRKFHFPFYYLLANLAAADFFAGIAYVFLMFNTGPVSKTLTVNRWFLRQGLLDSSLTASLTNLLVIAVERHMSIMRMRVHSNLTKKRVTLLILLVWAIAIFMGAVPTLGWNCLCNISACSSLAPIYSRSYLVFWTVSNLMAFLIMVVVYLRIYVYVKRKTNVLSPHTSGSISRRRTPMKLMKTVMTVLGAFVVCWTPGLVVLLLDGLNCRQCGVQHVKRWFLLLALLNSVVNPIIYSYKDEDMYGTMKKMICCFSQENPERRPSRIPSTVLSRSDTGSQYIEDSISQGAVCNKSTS

[2] = Lipophilicity, logD of compound at pH 7.4; type: physicochemical; conditions: buffer
[3] = target: T2, Solute carrier organic anion transporter family member 1B3 (Homo sapiens, UniProt Q9NPD5); assay: Inhibition of OATPB1P3 in human hepatocyte by LC-MS analysis; type: cell-based
T2 sequence (Q9NPD5 whole entry): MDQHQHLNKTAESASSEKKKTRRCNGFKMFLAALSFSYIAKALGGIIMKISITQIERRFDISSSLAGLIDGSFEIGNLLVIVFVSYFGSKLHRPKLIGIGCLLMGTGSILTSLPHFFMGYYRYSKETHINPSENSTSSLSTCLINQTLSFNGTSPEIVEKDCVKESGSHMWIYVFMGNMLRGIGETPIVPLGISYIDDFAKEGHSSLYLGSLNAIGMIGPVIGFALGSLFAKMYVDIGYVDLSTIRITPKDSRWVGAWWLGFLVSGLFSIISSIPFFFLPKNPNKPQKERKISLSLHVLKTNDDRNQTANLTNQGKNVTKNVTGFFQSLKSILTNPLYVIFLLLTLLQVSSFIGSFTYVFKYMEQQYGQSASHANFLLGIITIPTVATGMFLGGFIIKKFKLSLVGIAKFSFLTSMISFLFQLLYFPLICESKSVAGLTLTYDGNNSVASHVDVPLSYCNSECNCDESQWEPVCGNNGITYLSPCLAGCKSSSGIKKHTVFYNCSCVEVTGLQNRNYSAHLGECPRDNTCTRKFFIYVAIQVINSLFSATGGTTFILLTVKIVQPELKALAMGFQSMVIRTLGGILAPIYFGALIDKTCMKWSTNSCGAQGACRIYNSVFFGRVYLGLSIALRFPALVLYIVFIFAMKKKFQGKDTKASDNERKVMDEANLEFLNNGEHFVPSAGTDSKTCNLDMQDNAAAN

[4] = target: Lysophosphatidic acid receptor 1 (Homo sapiens, UniProt Q92633); assay: Antagonist activity at human LPA1 receptor expressed in HEK293 cells assessed as Galpha15 effector recruitment incubated for 10 mins by BRET assay; type: functional, cell-based
Chain of Lysophosphatidic acid receptor 1 (Q92633 whole entry): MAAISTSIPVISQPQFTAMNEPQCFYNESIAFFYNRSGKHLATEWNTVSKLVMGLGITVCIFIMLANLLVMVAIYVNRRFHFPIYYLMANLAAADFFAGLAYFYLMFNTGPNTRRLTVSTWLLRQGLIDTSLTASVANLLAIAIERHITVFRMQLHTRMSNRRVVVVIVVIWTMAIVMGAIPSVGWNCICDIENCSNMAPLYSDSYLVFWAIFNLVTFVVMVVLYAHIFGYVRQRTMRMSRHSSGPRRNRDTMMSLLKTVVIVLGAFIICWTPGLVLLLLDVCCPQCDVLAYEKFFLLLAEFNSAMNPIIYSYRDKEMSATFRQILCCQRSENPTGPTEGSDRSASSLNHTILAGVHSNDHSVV

EC50 [1]: > 10 µM | logD [2]: 2.7 | IC50 [3]: 15 µM | EC50 [4]: 0.0461 µM
SMILES: C[C@@H](OC(=O)Nc1c(-c2ccc(NC(=O)c3cnc(C(F)(F)F)nc3)cn2)nnn1C)c1cc(F)cnc1F
